Measured values: patent US11400063B2, “Early administration of low-dose colchicine after myocardial infarction” (INSTITUT DE CARDIOLOGIE DE MONTREAL, priority 2019, dated 2022)
“And” between values parts separate entries of the source, which are not always exact repeats. Equal values may be shown once.

Test system: patients recruited within 30 days after a myocardial infarction
Test: COLCOT randomized double-blind trial, efficacy end points, colchicine 0.5 mg once daily vs placebo
Assay type: in vivo, human
Conditions: for Total primary endpoint events, Rate Ratio (95% CI): Negative binomial model, marginal rate ratio; for Rate of primary endpoint events per 100 patient-months: first and recurrent events
Description: We performed a randomized, double-blind trial involving patients recruited within 30 days after a myocardial infarction. The patients were randomly assigned to receive either low-dose colchicine (0.5 mg once daily) or placebo. A total of 4745 patients were enrolled; 2386 patients were assigned to the colchicine group, and 2379 to the placebo group. Patients were followed for a median of 22.6 months.
The primary efficacy end point was a composite of death from cardiovascular causes, resuscitated cardiac arrest, myocardial infarction (e.g., acute myocardial infraction or type II myocardial infarction), stroke, or urgent hospitalization for angina leading to coronary revascularization. The components of the primary end point and safety were also assessed.
COLCOT was an international multicenter, randomized, double-blinded trial that randomly assigned patients to receive either low-dose colchicine (0.5 mg once daily) or placebo. The study protocol and main results have been published (see, Tardif et al., N Engl J Med 2019). […] Main exclusion criteria were severe heart failure, reduced left ventricular ejection fraction (<35%), recent stroke (<3 months), type 2 MI, recent (<3 years) or planned coronary artery bypass graft (CABG), history of cancer (<3 years), and inflammatory bowel disease or chronic diarrhea. All patients enrolled in the trial benefited from percutaneous coronary intervention whenever indicated and guidelines-directed management of CV disease prior to randomization (see. Tardif et al., N Engl J Med 2019).
Clinical follow-up consisted of evaluations at 1 and 3 months after randomization and every 3 months thereafter. An independent clinical endpoint committee, blinded to trial-group assignment, adjudicated clinical endpoints. The trial was locally approved by the various institutional review boards, and all patients signed a written informed consent before enrollment.
The primary efficacy endpoint was a composite of CV death, resuscitated cardiac arrest, MI, stroke, or urgent hospitalization for angina requiring coronary revascularization. The secondary endpoints consisted of the components of the primary efficacy endpoint, all-cause death, and a composite of CV death, resuscitated cardiac arrest, MI, or stroke. Exploratory endpoints included all coronary revascularizations, including both elective and urgent coronary revascularizations.
The primary efficacy endpoint was a composite of cardiovascular death, MI, ischemic stroke, and urgent coronary revascularization. Secondary efficacy endpoints consisted of the components of the primary endpoint, composite of cardiovascular death, MI, and ischemic stroke, as well as deep vein thrombosis or pulmonary embolus, and atrial fibrillation (AF). To maximize consistency in pooling efficacy endpoints among trials, the primary and secondary composite efficacy and stroke endpoints in COLCOT were modified to meet the definition of primary and stroke endpoints of the LoDoCo2 trial. Therefore, adjudicated events of resuscitated cardiac arrest and non-ischemic stroke in COLCOT were excluded from the pooled primary endpoint. The component endpoint of stroke was also restricted to include only ischemic strokes. Incidence rates and hazards ratios (HRs) were calculated for the new primary composite endpoint and ischemic stroke endpoint using individual patient data from COLCOT.
The COLCOT trial was performed as follows. A randomized, double-blind trial involving patients recruited within 30 days after a myocardial infarction was performed. The patients were randomly assigned to receive either low-dose colchicine (0.5 mg once daily) or placebo. A total of 4745 patients were enrolled; 2386 patients were assigned to the colchicine group, and 2379 to the placebo group. […]

[1] = COLCOT endpoint modified to LoDoCo2 definition
[2] = intention-to-treat population, listed as colchicine
[3] = intention-to-treat, colchicine vs placebo
[4] = intention-to-treat, colchicine vs placebo, listed as colchicine

SMILES: COc1cc2c(c(OC)c1OC)-c1ccc(OC)c(=O)cc1[C@@H](NC(C)=O)CC2 [Colchicine, colchicine]
- Total number of primary endpoint events (first and recurrent) (52949 patient-months of follow-up): 154
- Primary efficacy composite endpoint, no. of patients with event/total no. of patients (All patients): 131/2366
- Total primary endpoint events, Hazard Ratio (95% CI) (Andersen-Gill model): 0.69 (0.54; 0.88)
- Primary composite outcome (cardiovascular mortality, myocardial infarction, ischemic stroke, urgent revascularization), Events % [1]: (5.5%)
- Primary composite outcome (cardiovascular mortality, myocardial infarction, ischemic stroke, urgent revascularization), HR (95% CI) [1]: 0.77 (0.61-0.97)
- Primary composite outcome (cardiovascular mortality, myocardial infarction, ischemic stroke, urgent revascularization), Events N (COLCOT endpoint modified to LoDoCo2 definition, N = 2366): 130 N
- Ischemic stroke, Events % (COLCOT, only ischemic strokes): 0.2%
- Ischemic stroke, Events N (COLCOT, only ischemic strokes): 4 N
- Ischemic stroke, HR (95% CI) (COLCOT, only ischemic strokes): 0.25 (0.08-0.75)
- Ischemic stroke, HR (95% CI) (COLCOT, only ischemic strokes, listed as colchicine): 0.25
- Number of patients with 0 primary endpoint events per patient (N = 2366): 2235
- Number of patients with 1 primary endpoint event per patient (N = 2366): 111
- Number of patients with 2 primary endpoint events per patient (N = 2366): 18
- Number of patients with 3 primary endpoint events per patient (N = 2366): 1
- Number of patients with 4 primary endpoint events per patient (N = 2366): 1
- Total primary endpoint events, Rate Ratio (95% CI): 0.66 (0.51; 0.86)
- Total primary endpoint events, Rate Ratio (95% CI) (listed as colchicine): 0.66
- Total primary endpoint events, Hazard Ratio (95% CI) (WLW model, 1st Event): 0.77 (0.61; 0.96)
- Total primary endpoint events, Hazard Ratio (95% CI) (WLW model, 2nd Event): 0.73 (0.48; 1.11)
- Total primary endpoint events, Hazard Ratio (95% CI) (WLW model, 3rd Event): 0.64 (0.37; 1.10)
- Total primary endpoint events, Hazard Ratio (95% CI) (WLW model, Average): 0.77 (0.61; 0.96)
- Rate of primary endpoint events per 100 patient-months: 0.29 per 100 patient-months
- Rate of primary endpoint events per 100 patient-months (listed as colchicine): 029 per 100 patient-months
- Atrial fibrillation, number of patients (intention-to-treat population): 36 number
- Atrial fibrillation, percent of patients (intention-to-treat population): (1.5) percent
- Death from cardiovascular causes, number of patients (intention-to-treat population): 20 number
- Death, number of patients (intention-to-treat population): 43 number
- Death, percent of patients (intention-to-treat population): (1.8) percent
- Deep venous thrombosis or pulmonary embolus, number of patients (intention-to-treat population): 10 number
- Deep venous thrombosis or pulmonary embolus, percent of patients (intention-to-treat population): (0.4) percent
- Myocardial infarction, number of patients (intention-to-treat population): 89 number
- Resuscitated cardiac arrest, number of patients (intention-to-treat population): 5 number
- Resuscitated cardiac arrest, percent of patients (intention-to-treat population): (0.2) percent
- Secondary composite end point, percent of patients (intention-to-treat population): (4.7) percent
- Stroke, number of patients (intention-to-treat population): 5 number
- Stroke, percent of patients (intention-to-treat population): (0.2) percent
- Urgent hospitalization for angina leading to revascularization, number of patients (intention-to-treat population): 25 number
- Primary composite end point, number of patients (intention-to-treat population, N = 2366, median follow-up 22.6 months): 131 number
- Primary composite end point, percent of patients [2]: 5.5%
- Secondary composite end point, percent of patients [2]: 4.7%
- Atrial fibrillation, Hazard Ratio (95% CI) [3]: 0.93 (0.59-1.46)
- Death from cardiovascular causes, Hazard Ratio (95% CI) [3]: 0.84 (0.46-1.52)
- Death, Hazard Ratio (95% CI) [3]: 0.98 (0.64-1.49)
- Deep venous thrombosis or pulmonary embolus, Hazard Ratio (95% CI) [3]: 1.43 (0.54-3.75)
- Myocardial infarction, Hazard Ratio (95% CI) [3]: 0.91 (0.68-1.21)
- Primary composite end point, Hazard Ratio (95% CI) [3]: 0.77 (0.61-0.96)
- Resuscitated cardiac arrest, Hazard Ratio (95% CI) [3]: 0.83 (0.25-2.73)
- Secondary composite end point, Hazard Ratio (95% CI) [3]: 0.85 (0.66-1.10)
- Stroke, Hazard Ratio (95% CI) [3]: 0.26 (0.10-0.70)
- Urgent hospitalization for angina leading to revascularization, Hazard Ratio (95% CI) [3]: 0.50 (0.31-0.81) and 0.50 (0.31.-0.81)
- Death from cardiovascular causes, Hazard Ratio (95% CI) [4]: 0.84
- Myocardial infarction, Hazard Ratio (95% CI) [4]: 0.91
- Primary composite end point, Hazard Ratio (95% CI) [4]: 0.77
- Resuscitated cardiac arrest, Hazard Ratio (95% CI) [4]: 0.83
- Secondary composite end point, Hazard Ratio (95% CI) [4]: 0.85
- Stroke, Hazard Ratio (95% CI) [4]: 0.26
- Urgent hospitalization for angina leading to revascularization, Hazard Ratio (95% CI) [4]: 0.50
- Secondary composite end point, number of patients (intention-to-treat, death from cardiovascular causes, resuscitated cardiac arrest, myocardial infarction, and stroke): 111 number
- reduction of the risk of ischemic CV events (main COLCOT results, post-MI setting): 23%
- Time to first primary endpoint, Adjusted Hazard Ratio (95% CI) (multivariable Cox regression model, colchicine vs. placebo, 4745 observations): 0.78 (0.62-0.98)
- MI, % of patients (per-protocol population): (3.4%)
- MI, no. of patients (per-protocol population): 77 no.
- Primary endpoint, % of patients (per-protocol population): (5.1%)
